T1: Xyl3A (Mycothermus thermophilus, UniProt A0A0C5AKM5)
T1 construct: mature Xyl3A, signal peptide (residues 1-19) removed; precursor 777 residues; pPIC9 alpha-factor fusion, secreted from Pichia pastoris GS115
T1 sequence (A0A0C5AKM5 20-777): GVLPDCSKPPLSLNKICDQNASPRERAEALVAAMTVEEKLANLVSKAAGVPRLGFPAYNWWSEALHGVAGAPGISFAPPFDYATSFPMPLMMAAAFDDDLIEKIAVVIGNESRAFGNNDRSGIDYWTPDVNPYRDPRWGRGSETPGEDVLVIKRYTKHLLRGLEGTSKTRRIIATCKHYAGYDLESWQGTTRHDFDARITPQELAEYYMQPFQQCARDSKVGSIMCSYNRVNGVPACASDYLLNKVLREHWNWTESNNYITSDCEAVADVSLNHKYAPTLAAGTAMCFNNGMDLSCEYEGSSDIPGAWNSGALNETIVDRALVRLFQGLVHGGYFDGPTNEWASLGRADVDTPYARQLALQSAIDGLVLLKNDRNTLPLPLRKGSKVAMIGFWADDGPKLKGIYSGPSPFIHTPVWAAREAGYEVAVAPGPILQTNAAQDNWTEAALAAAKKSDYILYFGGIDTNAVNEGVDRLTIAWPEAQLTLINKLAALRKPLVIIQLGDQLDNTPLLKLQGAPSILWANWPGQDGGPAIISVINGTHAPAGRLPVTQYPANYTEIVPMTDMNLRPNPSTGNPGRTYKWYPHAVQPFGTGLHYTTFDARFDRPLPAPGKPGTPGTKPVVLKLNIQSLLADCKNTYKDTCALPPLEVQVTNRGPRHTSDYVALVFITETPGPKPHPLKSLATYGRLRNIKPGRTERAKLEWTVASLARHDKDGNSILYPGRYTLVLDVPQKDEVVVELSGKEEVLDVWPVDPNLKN


Key:
Xyl3A = target: T1, Xyl3A; assay: pNPX hydrolysis at […] nm, Dixon plot; assay type: biochemical; settings: pNPX 0.75 and 1 mM, xylose 5-50 mM, pH 6.0, 60°C; competitive (general statement for β-xylosidases); Methods define Ki as xylose giving 50% inhibition
purified protein = substrate: O=[N+]([O-])c1ccc(O[C@@H]2OC[C@@H](O)[C@H](O)[C@H]2O)cc1; assay: purified protein; assay type: biochemical, Mycothermus thermophilus; settings: pNPX 1-10 mM, 100 mM Na2HPO4-citric acid, pH 6.0, 60°C, 5 min

Molecule | Ki (Xyl3A) [mM] | Km (purified protein) [µM]
OC1OC[C@@H](O)[C@H](O)[C@H]1O (some centres unmarked) [xylose] | 29 | 
Xyl3A (Mycothermus thermophilus) (protein, mature Xyl3A, signal peptide (residues 1-19) removed; precursor 777 residues; pPIC9 alpha-factor fusion, secreted from Pichia pastoris GS115) GVLPDCSKPPLSLNKICDQNASPRERAEALVAAMTVEEKLANLVSKAAGVPRLGFPAYNWWSEALHGVAGAPGISFAPPFDYATSFPMPLMMAAAFDDDLIEKIAVVIGNESRAFGNNDRSGIDYWTPDVNPYRDPRWGRGSETPGEDVLVIKRYTKHLLRGLEGTSKTRRIIATCKHYAGYDLESWQGTTRHDFDARITPQELAEYYMQPFQQCARDSKVGSIMCSYNRVNGVPACASDYLLNKVLREHWNWTESNNYITSDCEAVADVSLNHKYAPTLAAGTAMCFNNGMDLSCEYEGSSDIPGAWNSGALNETIVDRALVRLFQGLVHGGYFDGPTNEWASLGRADVDTPYARQLALQSAIDGLVLLKNDRNTLPLPLRKGSKVAMIGFWADDGPKLKGIYSGPSPFIHTPVWAAREAGYEVAVAPGPILQTNAAQDNWTEAALAAAKKSDYILYFGGIDTNAVNEGVDRLTIAWPEAQLTLINKLAALRKPLVIIQLGDQLDNTPLLKLQGAPSILWANWPGQDGGPAIISVINGTHAPAGRLPVTQYPANYTEIVPMTDMNLRPNPSTGNPGRTYKWYPHAVQPFGTGLHYTTFDARFDRPLPAPGKPGTPGTKPVVLKLNIQSLLADCKNTYKDTCALPPLEVQVTNRGPRHTSDYVALVFITETPGPKPHPLKSLATYGRLRNIKPGRTERAKLEWTVASLARHDKDGNSILYPGRYTLVLDVPQKDEVVVELSGKEEVLDVWPVDPNLKN |  | 2510
